Laboratory results as given in US7300764B2, “Method for identifying agonists and antagonists of the GPR45-like/GPR63 receptor” (Sanofi-Aventis Deutschland GmbH, priority 2002, dated 2007).

What was measured:
[1] = target: T1, GPR45 like/GPR63 receptor (Homo sapiens, UniProt Q9BZJ6); test: FLIPR assay, stimulation of intracellular Ca2+ release in transfected CHO cells; assay type: cell-based; parameters: The PCR fragment with a length of 1,260 base pairs which was formed by the PCR described above was incorporated; expressed in transfected cells; host or cells: CHO-K1 cells, transient transfection with Lipofectamine; settings: final concentration of 1 μM; CHO cells expressing GPR45 like/GPR63 receptor and G protein α subunit delta 6qi4mgr
T1 sequence (Q9BZJ6 whole entry, the tested form may be a part): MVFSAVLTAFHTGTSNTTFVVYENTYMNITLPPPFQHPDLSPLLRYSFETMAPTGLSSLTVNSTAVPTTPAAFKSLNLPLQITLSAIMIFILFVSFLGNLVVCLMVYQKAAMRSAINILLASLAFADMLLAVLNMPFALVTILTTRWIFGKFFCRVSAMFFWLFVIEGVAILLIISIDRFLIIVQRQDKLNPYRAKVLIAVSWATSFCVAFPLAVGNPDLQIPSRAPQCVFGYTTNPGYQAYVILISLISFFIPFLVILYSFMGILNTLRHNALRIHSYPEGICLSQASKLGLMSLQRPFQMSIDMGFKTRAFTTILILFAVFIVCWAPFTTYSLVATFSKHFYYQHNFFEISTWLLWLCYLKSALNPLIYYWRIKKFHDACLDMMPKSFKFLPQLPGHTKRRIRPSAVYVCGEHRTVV
Description: CHO-K1 cells were cultivated in basal Iscove's medium with further additions. Iscove's medium is commercially available from, for example, Biochrom, Berlin. The composition was described for the first time in N. N. Iscove and F. Melchers, Journal of Experimental Medicine 147, 923-933 (1978). 10% fetal bovine serum, 10 000 U/ml-10 000 μg/ml penicillin-streptomycin, gentamycin, and 2 mM L-glutamine were used as further additions to Iscove's medium. The cells were incubated at 37° C. with a 5% CO2 atmosphere.
About 2×10^5 CHO-K1 cells were seeded in 35 mm dishes for the transient transfection. After further incubation for about 24 hours and with the cells at about 50-80% confluence, the cells were transiently transfected with 1 μg of the plasmid DNA construct with the assistance of Lipofectamine (Gibco).
About 16 to 18 hours after the transfection, the CHO cells were put in an amount of about 80,000 cells per well in 96-well plates and incubated further for about 18-24 hours. […]
After the last washing step, 100 μl were left on the cells in each well. […] A 60 μM solution was kept ready on a 96-well microtiter plate. […]
The fluorescence was measured by a Fluorometric Imaging Plate Reader (FLIPR®, Molecular Devices, Sunnyvale, Calif.) for 1 min in intervals lasting 1 sec and for a further 2 min in 3-second intervals. […]

[2] = target: T1, GPR45 like/GPR63 receptor; test: Cell growth assay in transfected CHO cells; assay type: cell-based; parameters: The PCR fragment with a length of 1,260 base pairs which was formed by the PCR described above was incorporated; expressed in transfected cells; host or cells: CHO cells, transient transfection with Lipofectamine; settings: 1 μM S1P, 48 hours, Iscove's medium with 10% dialyzed fetal calf serum, average of 2 independent tests
Description: CHO cells were put in an amount of 8×10^4 cells into 35 mm plates. After 32 hours, the cells were transfected with 1 μg of the plasmid construct using Lipofectamine (Gibco). After a further 13 hours (time 0), the cells were washed with PBS and incubated in Iscove's medium which contained 10% dialyzed fetal calf serum for 48 hours (time 48), specifically in the presence or absence of 1 μM S1P (sphingosine 1-phosphate).
The number of cells at time 0 and time 48 was determined by counting. This was done by first treating the cells with trypsin and then suspending them in 1 ml of Iscove's. An amount of 100 μl of these cells was diluted in 10 ml of buffer and counted in a cell counter, e.g. in the Casy Cellcounter TT (Cell Counter und Analysesystem, Schärfe, Reutlingen).
An amount of 8×10^4 CHO cells was seeded onto 35 mm plates. The cells were transfected after 32 hours with 1 μg of DNA of the vector construction. After 13 hours, the cells were washed once with PBS and incubated in Iscove's medium containing 10% dialyzed fetal calf serum in the presence or absence of 1 μM S1P for a further 48 hours.

| Compound | Ca^2+ influx [1] | more cells (cell number vs absence of S1P) [2] |
| --- | --- | --- |
| CCCCCCCCCCCCC/C=C/[C@@H](O)[C@@H](N)COP(=O)(O)O [S1P, sphingosine 1-phosphate] | led to a measurable Ca^2+ influx | about 20% |
| CCCCCCCCCCCCCCC[C@@H](O)[C@@H](N)COP(=O)(O)O [DHS1P, dihydrosphingosine 1-phosphate] | led to a measurable Ca^2+ influx | – |
